Experiments:
Type in all cases: binding
[1] = system: T1, KRas^G12D; assay: Intact MS photoaffinity labeling screen, KRas G12D (302 nm, LCMS-TOF); conditions: for MS labeling percentage, KRas: KRas G12D, 302 nm 10 min
T1 construct: purchased GSK/GenScript
Procedure, shortened: (§1)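 Labeling detected as mass additions in deconvoluted intact-protein LCMS-TOF spectra. Protein at 1 μM in PBS was first mixed with one fragment per well on ice for 15 min, followed by 10 min UV exposure at 302 nm.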

[2] = system: carbonic anhydrase II (CA); assay: Intact protein MS photoaffinity labeling screen, carbonic anhydrase; conditions: intact protein MS after 10 min irradiation
Procedure, shortened: (§2)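 Plate format, one fragment/well; 15 min incubation with protein for non-covalent complex formation; direct intact-protein MS read from plate; labeling % from adduct mass additions.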

[3] = system: T2, STAT5B-NTD; assay: Intact MS photoaffinity labeling screen, STAT5B-NTD (365 nm, UHPLC-MS); conditions: for MS labeling percentage, STAT5B: STAT5B-NTD, 365 nm 10 min, no photocatalyst;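 on MS labeling percentage, STAT5B: 0.17 µL of 100 mM DMSO fragment stock added to the protein sample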
T2 construct: His-SUMO (N, cleaved yes); made in house; host or cells: E. coli BL21 RILP
Procedure, shortened: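 Intact-protein labeling detected by UHPLC-MS in positive ion mode over m/z 100–2000. Samples were first photo-crosslinked at 365 nm for 10 min at 4 °C. Before irradiation, 7 µM STAT5B in PBS pH 7.4 was pre-incubated with probe for 1 h in the dark at room temperature.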

[4] = system: myoglobin (Myo); assay: Intact protein MS photoaffinity labeling screen, myoglobin; conditions: intact protein MS after 10 min irradiation
Procedure, shortened: as §2

[5] = system: T2, STAT5B-NTD; assay: Intact MS labeling screen, STAT5B-NTD conjugated with photocatalyst Ir-G2-PEG3-COOH (450 nm); conditions: 450 nm 10 min;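 further: 0.14 µL of 100 mM DMSO fragment stock added to the conjugate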
Procedure, shortened: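 Ir-G2-PEG3-COOH photocatalyst (10 eq) activated 30 min with EDC/NHS/BOP, then conjugated to STAT5B-NTD (7 µM) overnight at RT or 1 h at 37 °C in dark. PhP added, 1 h dark, then 450 nm irradiation 10 min at 4 °C; labeling read by intact LC-MS, positive ion mode, m/z 100–2000.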

[6] = system: lysozyme (Lyo); assay: Intact protein MS photoaffinity labeling screen, lysozyme; conditions: intact protein MS after 10 min irradiation
Procedure, shortened: as §2

[7] = system: T3, BRD4-BD1; assay: Intact MS photoaffinity labeling screen, BRD4-BD1 (302 nm, LCMS-TOF); conditions: for MS labeling percentage, BRD4: BRD4-BD1, 302 nm 10 min
T3 construct: screened the PhP library against the first bromodomain of BRD4 (BRD4-BD1); purchased GSK/GenScript
Procedure, shortened: as §1

[8] = sheet PhP, experimental hit status flag given as 0 or 1
[9] = hit flag 1/0, sheet PhP, photoaffinity labeling screen
[10] = experimental hit status flag (0/1)

Structure (SMILES) | MS labeling percentage, CA [2] | MS labeling percentage, KRas [1] | KRAS-G12D (experimental hit status) [1, 8] | MS labeling percentage, STAT5B [3] | STAT5B-NTD (experimental hit status) [3, 8] | MS labeling percentage, Myo [4] | MS labeling percentage, STAT5B+photocat [5] | MS labeling percentage, Lyo [6] | MS labeling percentage, BRD4 [7] | BRD4-BD1 (experimental hit status) [7, 8] | KRAS-G12D (experimental hit status) [1, 9] | STAT5B-NTD (experimental hit status) [3, 9] | BRD4-BD1 (experimental hit status) [7, 9] | KRAS-G12D [1, 10] | STAT5B-NTD [3, 10] | BRD4-BD1 [7, 10] | experimental hit status KRAS-G12D ([1]; 0/1 flag) | experimental hit status STAT5B-NTD ([3]; 0/1 flag) | experimental hit status BRD4-BD1 ([7]; 0/1 flag)
COc1nc(C)cc(C)c1CNC(=O)CCC1(C)N=N1 [PhP068, COc1nc(C)cc(C)c1CNC(=O)CCC2(C)N=N2] | 0.3% | 0% | 0 | 1% | 0 | 0.4% | 4.4% | 0% | 1% | 0 |  |  |  |  |  |  |  |  | 
Cc1[nH]c2ccc(CNC(=O)CCC3(C)N=N3)cc2c1C [PhP004, Cc([nH]1)c(C)c(c12)cc(cc2)CNC(=O)CCC3(C)N=N3] | 0.1% | 0.7% |  | 2.9% |  | 0.3% | 13% | 0% |  |  |  |  |  | 0 | 0 | 0 |  |  | 
Cc1cc2ncn(CC(O)CNC(=O)CCC3(C)N=N3)c2cc1C (stereo not drawn) [PhP067, Cc(c1)c(C)cc(c12)n(cn2)CC(O)CNC(=O)CCC3(C)N=N3] | 0.2% | 0.6% | 0 | 2% | 0 | 0.5% | 0.3% | 0% | 0.8% | 0 |  |  |  |  |  |  |  |  | 
CC1(CCC(=O)N[C@@H](Cc2ccc(O)cc2)C(N)=O)N=N1 [PhP058, N1=NC1(C)CCC(=O)N[C@H](C(=O)N)Cc2ccc(O)cc2] | 0% | 0% | 0 | 1% | 0 | 0.1% | 0.5% | 1.2% | 0.4% | 0 |  |  |  |  |  |  |  |  | 

Now from value to molecule, other results behind:

MS labeling percentage, CA [2] | Structure (SMILES) | MS labeling percentage, KRas [1] | KRAS-G12D (experimental hit status) [1, 8] | MS labeling percentage, STAT5B [3] | STAT5B-NTD (experimental hit status) [3, 8] | MS labeling percentage, Myo [4] | MS labeling percentage, STAT5B+photocat [5] | MS labeling percentage, Lyo [6] | MS labeling percentage, BRD4 [7] | BRD4-BD1 (experimental hit status) [7, 8] | KRAS-G12D (experimental hit status) [1, 9] | STAT5B-NTD (experimental hit status) [3, 9] | BRD4-BD1 (experimental hit status) [7, 9] | KRAS-G12D [1, 10] | STAT5B-NTD [3, 10] | BRD4-BD1 [7, 10] | experimental hit status KRAS-G12D ([1]; 0/1 flag) | experimental hit status STAT5B-NTD ([3]; 0/1 flag) | experimental hit status BRD4-BD1 ([7]; 0/1 flag)
0.5% | COc1ccc(CNC(=O)CCC2(C)N=N2)cn1 [PhP039, COc1ccc(cn1)CNC(=O)CCC2(C)N=N2] | 0.2% |  | 1% |  | 0.3% | 1.3% | 0% | 0.5% |  | 0 | 0 | 0 |  |  |  |  |  | 
0.5% | CC1(CCC(=O)NCC(C)(C)NS(C)(=O)=O)N=N1 [PhP045, CS(=O)(=O)NC(C)(C)CNC(=O)CCC1(C)N=N1] | 0.2% |  | 0% |  | 0.2% | 2.3% | 0% | 0.4% |  | 0 | 0 | 0 |  |  |  |  |  | 
0.5% | CC1(CCC(=O)NCCCCN2CCOCC2)N=N1 [PhP022, N1=NC1(C)CCC(=O)NCCCCN2CCOCC2] | 0.5% |  | 1% |  | 0.2% | 0.4% | 0% | 0.6% |  |  |  |  |  |  |  | 0 | 0 | 0

— publication PMC11292009, “Mapping protein binding sites by photoreactive fragment pharmacophores” (Communications Chemistry, 2024)
